The record followed here is patent US6090828A, “5-aryleheteroarylalkyl-1,3,5-trisubstituted-1,2,4-triazole compounds for treatment of circulatory disorders” (priority 1997, dated 2000).

Read-outs that look alike come from different tables or passages of the source.

Assay [1] has as its target smooth muscle angiotensin II receptor. In words: Assay A: Angiotensin II Binding Activity. To be noted: 50% displacement of specifically bound 125I-AII; rat uterine membranes; pH 7.5; 25° C., 60 min. The method, then: Compounds of the invention were tested for ability to bind to the smooth muscle angiotensin II receptor using a rat uterine membrane preparation. […] Rat uterine membranes were prepared from fresh tissue. All procedures were carried out at 4° C. Uteri were stripped of fat and homogenized in phosphate-buffered saline at pH 7.4 containing 5 mM EDTA. The homogenate was centrifuged at 1500×g for 20 min., and the supernatant was recentrifuged at 100,000×g for 60 min. The pellet was resuspended in buffer consisting of 2 mM EDTA and 50 mM Tris-HCl (pH 7.5) to a final protein concentration of 4 mg/ml. […] The reaction was initiated by the addition of membrane protein and the mixture was incubated at 25° C. for 60 min. The incubation was terminated with ice-cold 50 mM Tris-HCl (pH 7.5) and the mixture was filtered to separate membrane-bound labelled peptide from the free ligand. The incubation tube and filter were washed with ice-cold buffer. Filters were assayed for radioactivity in a Micromedic gamma counter. Nonspecific binding was defined as binding in the presence of 10 μM of unlabelled AII. Specific binding was calculated as total binding minus nonspecific binding. […] Binding data were analyzed by a nonlinear least-squares curve fitting program.

The target in assay [2] is T1, rabbit aortic rings (Oryctolagus cuniculus, UniProt P34976).
T1 construct: The thoracic aorta was removed, cleaned of adherent fat and connective tissue and then cut into 3-mm ring segments; from tissue; host or cells: rabbit thoracic aorta rings, endothelium removed
T1 sequence (P34976 1-359): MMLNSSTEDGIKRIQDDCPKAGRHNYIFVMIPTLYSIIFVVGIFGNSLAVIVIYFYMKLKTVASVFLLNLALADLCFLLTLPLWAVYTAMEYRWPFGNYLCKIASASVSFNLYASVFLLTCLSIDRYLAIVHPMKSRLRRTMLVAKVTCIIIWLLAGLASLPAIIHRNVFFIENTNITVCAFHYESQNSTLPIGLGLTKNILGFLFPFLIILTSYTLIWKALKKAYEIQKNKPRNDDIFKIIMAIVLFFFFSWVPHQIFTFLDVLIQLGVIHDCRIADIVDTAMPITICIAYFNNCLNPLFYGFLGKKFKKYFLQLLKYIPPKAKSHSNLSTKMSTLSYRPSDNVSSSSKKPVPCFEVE
In words: Assay B: In Vitro Vascular Smooth Muscle Response for AII. More on the design: species or system rabbit (male New Zealand white). To be noted: rabbit aorta rings, two rabbits per antagonist, antagonist 10^-5 M, 5 minutes, AII contraction, Schild. The method, then: The compounds of the invention were tested for antagonist activity in rabbit aortic rings. Male New Zealand white rabbits (2-2.5 kg) were sacrificed using an overdose of pentobarbital and exsanguinated via the carotid arteries. The thoracic aorta was removed, cleaned of adherent fat and connective tissue and then cut into 3-mm ring segments. The endothelium was removed from the rings by gently sliding a rolled-up piece of filter paper into the vessel lumen. The rings were then mounted in a water-jacketed tissue bath, maintained at 37° C., between moveable and fixed ends of a stainless steel wire with the moveable end attached to an FT03 Grass transducer coupled to a Model 7D Grass Polygraph for recording isometric force responses. […] The preparations were equilibrated for one hour before approximately one gram of passive tension was placed on the rings. Angiotensin II concentration-response curves were then recorded (3×10^-10 to 1×10^-5 M). Each concentration of AII was allowed to elicit its maximal contraction, and then AII was washed out repeatedly for 30 minutes before rechallenging with a higher concentration of AII. Aorta rings were exposed to the test antagonist at 10^-5 M for 5 minutes before challenging with AII. Adjacent segments of the same aorta ring were used for all concentration-response curves in the presence or absence of the test antagonist. […] The pA2 value is the concentration of the antagonist which increases the EC50 value for AII by a factor of two. Each test antagonist was evaluated in aorta rings from two rabbits.

The mark [3] stands for this setting: read-out: pA2 (first of two values) (converted).
Where [4] appears, read: read-out: pA2 (second of two values) (converted).

Usually IC50 stands for the midpoint of a concentration-inhibition curve. Read a low IC50 as higher potency. As to `CCCCn1nc(C(C)(F)F)nc1Cc1ccc(-c2ccccc2-c2nnn[nH]2)nc1` [Example 17, 5-[2-[5-[[1-butyl-3-(1,1-difluoroethyl)-1H-1,2,4-triazol-5-yl]methyl]-2-pyridinyl]phenyl]-1H-tetrazole], in assay [1], the IC50 is 160 nM. The Kb was 26.9 nM in assay [2] (setting [3]) and 18.2 nM in assay [2] (setting [4]).
On the same counts, the results for `CCCn1nc(C(OC)OC)nc1Cc1ccc(-c2ccccc2-c2nnn[nH]2)nc1` [Example 25, 5-[2-[5-[[1-propyl-3-dimethoxymethyl-1H-1,2,4-triazol-5-yl]methyl]-2-pyridinyl]phenyl]-1H-tetrazole] are 180 nM, 51.3 nM and 95.5 nM.
For the compound `CCCCCn1nc(CCCC)nc1Cc1ccc(-c2ccccc2-c2nnn[nH]2)nc1` [Example 6, 5-[2-[5-[(1-pentyl-3-butyl-1H-1,2,4-triazol-5-yl)methyl]-2-pyridinyl]phenyl]-1H-tetrazole], in assay [1], the concentration for half-maximal inhibition (IC50) is 86 nM. For the same compound, the Kb was 25.1 nM in assay [2] (setting [3]) and 72.4 nM in assay [2] (setting [4]).
Turning to “5-[2-[5-[[1-ethyl-3-(1,1-difluoroethyl)-1H-1,2,4-triazol-5-yl]methyl]-2-pyridinyl]phenyl]-1H-tetrazole [Example 15]”, in assay [1], the IC50 is 1700 nM.
Consider `CCCCc1nc(Cc2ccc(-c3ccccc3-c3nnn[nH]3)nc2)n(CC(C)(C)C)n1` [Example 35, 5-[2-[5-[(1-neopentyl-3-butyl-1H-1,2,4-triazol-5-yl)methyl]-2-pyridinyl]phenyl]-1H-tetrazole], for which the IC50 in assay [1] was 1100 nM. The Kb in assay [2] (setting [3]) was 166 nM.
As for `CCCCn1nc(CCc2ccccc2)nc1Cc1ccc(-c2ccccc2-c2nnn[nH]2)nc1` [Example 2, 5-[2-[5-[[1-butyl-3-(2-phenylethyl)-1H-1,2,4-triazol-5-yl]methyl]-2-pyridinyl]phenyl]-1H-tetrazole], the IC50 in assay [1] was 17 nM. Moreover, the Kb was 17.4 nM in assay [2] (setting [3]) and 10.7 nM in assay [2] (setting [4]).
The compound `CCCCn1nc(C(=O)NC)nc1Cc1ccc(-c2ccccc2-c2nnn[nH]2)nc1` [Example 23, 5-[2-[5-[[1-butyl-3-(N-methylamido)-1H-1,2,4-triazol-5-yl]methyl]-2-pyridinyl]phenyl]-1H-tetrazole] showed an IC50 in assay [1] of 70 nM. The Kb was 70.8 nM in assay [2] (setting [3]) and 91.2 nM in assay [2] (setting [4]).
For the compound `CCCCn1nc(C(=O)CCC)nc1Cc1ccc(-c2ccccc2-c2nnn[nH]2)nc1` [Example 11, 5-[2-[5-[[1-butyl-3-(1-oxobutyl)-1H-1,2,4-triazol-5-yl]methyl]-2-pyridinyl]phenyl]-1H-tetrazole], the IC50 in assay [1] was found to be 64 nM. The Kb in assay [2] (setting [3]) was 13.5 nM; in assay [2] (setting [4]), 19.5 nM.
The compound `CCCCn1nc(C(F)CCC)nc1Cc1ccc(-c2ccccc2-c2nnn[nH]2)nc1` (stereo not shown) [Example 12, 5-[2-[5-[[1-butyl-3-(1-fluorobutyl)-1H-1,2,4-triazol-5-yl]methyl]-2-pyridinyl]phenyl]-1H-tetrazole] yielded an IC50 in assay [1] of 28 nM.
Compound `CCCCn1nc(C(C)=O)nc1Cc1ccc(-c2ccccc2-c2nnn[nH]2)nc1` [Example 34, 5-[2-[5-[[1-butyl-3-(1-oxoethyl)-1H-1,2,4-triazol-5-yl]methyl]-2-pyridinyl]phenyl]-1H-tetrazole] had an IC50 in assay [1] of 390 nM.
In the case of `CCCCn1nc(/C=C/c2cccs2)nc1Cc1ccc(-c2ccccc2-c2nnn[nH]2)nc1` [Example 5, 5-[2-[5-[[1-butyl-3-[2-(2-thienyl)ethenyl]-1H-1,2,4-triazol-5-yl]methyl]-2-pyridinyl]phenyl]-1H-tetrazole], in assay [1], the IC50 was 97 nM. Moreover, the Kb in assay [2] (setting [3]) was 6.46 nM; in assay [2] (setting [4]) it was 4.17 nM.
On the same counts, the results for `CCCCn1nc(C(OC(C)C)OC(C)C)nc1Cc1ccc(-c2ccccc2-c2nnn[nH]2)nc1` [Example 29, 5-[2-[5-[[1-butyl-3-diisopropoxymethyl-1H-1,2,4-triazol-5-yl]methyl]-2-pyridinyl]phenyl]-1H-tetrazole] are 88 nM, 28.8 nM and 33.9 nM.
The like results for `CCCn1nc(C(F)(F)CC)nc1Cc1ccc(-c2ccccc2-c2nnn[nH]2)nc1` [Example 18, 5-[2-[5-[[1-propyl-3-(1,1-difluoropropyl)-1H-1,2,4-triazol-5-yl]methyl]-2-pyridinyl]phenyl]-1H-tetrazole] were, in that order, 370 nM, 83.2 nM and 77.6 nM.
In turn, `CCCCc1nc(Cc2ccc(-c3ccccc3-c3nnn[nH]3)nc2)n(CC(CC)CC)n1` [Example 8, 5-[2-[5-[[1-(2-ethylbutyl)-3-butyl-1H-1,2,4-triazol-5-yl]methyl]-2-pyridinyl]phenyl]-1H-tetrazole] yielded an IC50 in assay [1] of 530 nM. The Kb in assay [2] (setting [4]) is 603 nM.
Turning to `CCCn1nc(C(F)F)nc1Cc1ccc(-c2ccccc2-c2nnn[nH]2)nc1` [Example 13, 5-[2-[5-[(1-propyl-3-difluoromethyl-1H-1,2,4-triazol-5-yl)methyl]-2-pyridinyl]phenyl]-1H-tetrazole], in assay [1], the IC50 is 380 nM. For the same compound, the Kb in assay [2] (setting [3]) was 617 nM; in assay [2] (setting [4]), 282 nM.
`CCCCn1nc(C=O)nc1Cc1ccc(-c2ccccc2-c2nnn[nH]2)nc1` [Example 30, 5-[2-[5-[[1-butyl-3-formyl-1H-1,2,4-triazol-5-yl]methyl]-2-pyridinyl]phenyl]-1H-tetrazole] came in with a half-inhibitory concentration (IC50) in assay [1] of 310 nM. Moreover, the Kb in assay [2] (setting [3]) is 214 nM.
In the case of `CCCCn1nc(C(F)(F)CC)nc1Cc1ccc(-c2ccccc2-c2nnn[nH]2)nc1` [Example 19, 5-[2-[5-[[1-butyl-3-(1,1-difluoropropyl)-1H-1,2,4-triazol-5-yl]methyl]-2-pyridinyl]phenyl]-1H-tetrazole], the IC50 in assay [1] is 420 nM. For the same compound, the Kb in assay [2] (setting [3]) is 20.4 nM; in assay [2] (setting [4]) it was 26.3 nM.
Compound `CCCCCc1nc(Cc2ccc(-c3ccccc3-c3nnn[nH]3)nc2)n(CCCC)n1` [Example 7, 5-[2-[5-[(1-butyl-3-pentyl-1H-1,2,4-triazol-5-yl)methyl]-2-pyridinyl]phenyl]-1H-tetrazole] showed an IC50 in assay [1] of 78 nM. The Kb in assay [2] (setting [3]) was 9.33 nM; in assay [2] (setting [4]), 21.9 nM.
On the same counts, the results for `CCCn1nc(C(C)(F)F)nc1Cc1ccc(-c2ccccc2-c2nnn[nH]2)nc1` [Example 16, 5-[2-[5-[[1-propyl-3-(1,1-difluoroethyl)-1H-1,2,4-triazol-5-yl]methyl]-2-pyridinyl]phenyl]-1H-tetrazole] are 410 nM, 126 nM and 66.1 nM.
In the case of `CCCCn1nc(C(C)(OC)OC)nc1Cc1ccc(-c2ccccc2-c2nnn[nH]2)nc1` [Example 33, 5-[2-[5-[[1-butyl-3-(1,1-dimethoxyethyl)-1H-1,2,4-triazol-5-yl]methyl]-2-pyridinyl]phenyl]-1H-tetrazole], the half-inhibitory concentration (IC50) in assay [1] is 59 nM.
As to `CCCCn1nc(C(=O)NC(C)(C)C)nc1Cc1ccc(-c2ccccc2-c2nnn[nH]2)nc1` [Example 24, 5-[2-[5-[[1-butyl-3-(N-tertbutylamido)-1H-1,2,4-triazol-5-yl]methyl]-2-pyridinyl]phenyl]-1H-tetrazole], in assay [1], the IC50 is 90 nM. Besides, the Kb in assay [2] (setting [3]) is 32.4 nM; in assay [2] (setting [4]) it was 120 nM.
The like results for `CCCCn1nc(C(OCCC)OCCC)nc1Cc1ccc(-c2ccccc2-c2nnn[nH]2)nc1` [Example 28, 5-[2-[5-[[1-butyl-3-dipropoxymethyl-1H-1,2,4-triazol-5-yl]methyl]-2-pyridinyl]phenyl]-1H-tetrazole] were, in that order, 26 nM, 38.9 nM and 14.1 nM.
